Activity calls are given as the source filed them. The rule behind the calls is not given here. Peptide text beside a SMILES is read from it.

The nature of assay [1]: Antiinflammatory activity against LPS-stimulated ThG elicited C57BL/6 mouse peritoneal macrophages assessed as inhibition of LPS-induced IL6 production measured after 24 hrs by Griess assay. It counts as functional, Peritoneal macrophage. On the set-up: concentration or dose not given beside the values.
A short description of assay [2]: Antiinflammatory activity against LPS-stimulated ThG elicited C57BL/6 mouse peritoneal macrophages assessed as reduction in cell surface CD40 expression measured after 24 hrs by Flow cytometry analysis. Format: functional, Peritoneal macrophage. Further details: concentration or dose not given beside the values.
Assay [3] can be described thus: Antiinflammatory activity against LPS-stimulated ThG elicited C57BL/6 mouse peritoneal macrophages assessed as reduction in cell surface CD86 expression measured after 24 hrs by Flow cytometry analysis. Format: functional, Peritoneal macrophage. Further details: concentration or dose not given beside the values.
Assay [4] is described as follows: Antiinflammatory activity against LPS-stimulated ThG elicited C57BL/6 mouse peritoneal macrophages assessed as inhibition of LPS-induced TNFalpha production measured after 24 hrs by ELISA. It counts as functional, Peritoneal macrophage. On the set-up: scale not given: the % may be the effect or the level left.
The nature of assay [5]: Antiinflammatory activity against LPS-stimulated ThG elicited C57BL/6 mouse peritoneal macrophages assessed as inhibition of LPS-induced NO production measured after 24 hrs by Griess assay. It counts as functional, Peritoneal macrophage. On the set-up: concentration or dose not given beside the values.
Assay [6] has as its system Mus musculus. In words: Antiinflammatory activity in LPS-induced C57BL/6 mouse peritonitis model assessed as reduction in LPS-induced serum IL-6 levels at 50 ug, ip treated for 3 hrs followed by LPS stimulation and measured after 24 hrs post stimulation by ELISA. It counts as functional. Further details: scale not given: the % may be the effect or the level left. The conditions noted are these: dose 50 µg.

In assay [7] the test system is Mus musculus. Put plainly: Antiinflammatory activity in LPS-induced C57BL/6 mouse peritonitis model assessed as reduction in LPS-induced serum TNF alpha levels at 50 ug, ip treated for 3 hrs followed by LPS stimulation and measured after 24 hrs post stimulation by ELISA. It counts as functional. On the set-up: scale not given: the % may be the effect or the level left. The conditions noted are these: dose 50 µg.

Assay [8] deals with Mus musculus. Put plainly: Antiinflammatory activity in LPS-induced C57BL/6 mouse peritonitis model assessed as increase in F4/80 peritoneal cell population at 50 ug, ip treated for 3 hrs followed by LPS stimulation and measured after 24 hrs post stimulation by flow cytometry. It counts as functional. Conditions: dose 50 µg.
Assay [9] relates to Mus musculus. In words: Antiinflammatory activity in LPS-induced C57BL/6 mouse peritonitis model assessed as increase in Gr1 cell population at 50 ug, ip treated for 3 hrs followed by LPS stimulation and measured after 24 hrs post stimulation by flow cytometry. It counts as functional. Conditions: dose 50 µg.
Assay [10] relates to Mus musculus. In words: Antiinflammatory activity in LPS-induced C57BL/6 mouse peritonitis model assessed as reduction in CD40 protein expression at 50 ug, ip treated for 3 hrs followed by LPS stimulation and measured after 24 hrs post stimulation by flow cytometry. It counts as functional. On the set-up: scale not given: the % may be the effect or the level left. The conditions noted are these: dose 50 µg.

Assay [11] relates to Mus musculus. Put plainly: Antiinflammatory activity in LPS-induced C57BL/6 mouse peritonitis model assessed as reduction in CD86 protein expression at 50 ug, ip treated for 3 hrs followed by LPS stimulation and measured after 24 hrs post stimulation by flow cytometry. Format: functional. Further details: scale not given: the % may be the effect or the level left. Conditions: dose 50 µg.

In assay [12] the target is T1, Neutrophil elastase (Homo sapiens) (UniProt P08246).
T1 sequence (whole entry): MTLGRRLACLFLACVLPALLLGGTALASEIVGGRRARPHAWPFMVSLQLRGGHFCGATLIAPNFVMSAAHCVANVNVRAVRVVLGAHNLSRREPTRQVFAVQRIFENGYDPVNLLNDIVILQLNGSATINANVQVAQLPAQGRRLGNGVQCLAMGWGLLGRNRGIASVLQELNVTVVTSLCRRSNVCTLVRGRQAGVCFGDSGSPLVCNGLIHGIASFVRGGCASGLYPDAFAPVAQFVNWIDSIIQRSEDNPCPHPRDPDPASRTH
Put plainly: Inhibition of neutrophil elastase (unknown origin) at 0.96 to 96.15 uM. The conditions noted are these: dose 0.96-96.15 µM.

For the compound `COc1cccc(C(=O)NC(Cc2c[nH]cn2)C(=O)NC(C(N)=O)c2ccccc2)c1OC` (configuration not stated), the Activity in assay [1] is reported as 46.3%.
With `NC(=O)c1ccc(CNC(=O)C(Cc2c[nH]cn2)NCc2ccc(O)cc2)cc1` (configuration not stated), the results for the Activity in assay [1], in assay [2] and in assay [3] were 46.3%, 49.3% and 20.4%, respectively.
`NC(=O)CCC(NC(=O)C1Cc2nc[nH]c2CN1)C(N)=O` (configuration not stated): the figures for the Activity in assay [1] and in assay [4] were 46.3% and 24.4%, respectively.
`COc1cccc(C(=O)NC(Cc2c[nH]cn2)C(=O)NCc2ccc(C(N)=O)cc2)c1OC` (configuration not stated): the Activity stood at 29.5% in [5] and 46.3% in [1].
Regarding `NC(=O)c1ccc(CNC(=O)C(Cc2c[nH]cn2)NCc2cccc(O)c2)cc1` (configuration not stated), the Activity in assay [1] is 46.3%.
Regarding `NC(=O)C(NC(=O)C(Cc1c[nH]cn1)NCc1ccc(O)cc1)c1ccccc1` (configuration not stated), the Activity was found to be 38.7% in [5]; 33.5% in assay [1]; 27.4% in [2]; 16.4% in [3]; 19.9% in assay [4]; 80.6% with Mus musculus [6]. The Activity was 73.4% with Mus musculus [7]; 130.4% in the assay with Mus musculus [8]; 48.4% in the assay on Mus musculus [9]; 47.3% in the assay on Mus musculus [10]; 45.6% in the assay on Mus musculus [11].
As to `CC[C@H](C)[C@H](NC(=O)[C@H](CO)NC(=O)[C@H](CC(C)C)NC(=O)[C@H](CC(C)C)NC(=O)[C@@H](NC(=O)CNC(=O)[C@@H](NC(=O)[C@H](C)NC(C)=O)[C@@H](C)O)[C@@H](C)O)C(=O)N[C@@H](CC(N)=O)C(N)=O` (Ac-ATGTLLSIN-NH2), in assay [12], the inhibition entry is “inactive”.
With `CC(=O)N[C@@H](CC(=O)O)C(=O)N[C@@H](CC(C)C)C(=O)N[C@@H](CCCCN)C(=O)N[C@@H](CCCCN)C(=O)N[C@@H](CC(=O)O)C(=O)N[C@@H](CCCCN)C(=O)N[C@@H](C)C(N)=O` (Ac-DLKKDKA-NH2), in assay [12], the inhibition result was “inactive”.
For `CC(=O)N[C@@H](Cc1ccccc1)C(=O)N[C@@H](CCCNC(=N)N)C(=O)N[C@@H](Cc1ccc(O)cc1)C(=O)N[C@@H](CC(C)C)C(=O)N[C@H](C(=O)N[C@@H](CC(C)C)C(=O)N[C@@H](Cc1ccccc1)C(N)=O)C(C)C` (Ac-FRYLVLF-NH2), the inhibition result in [12] was “inactive”.
With `CC(=O)N[C@@H](Cc1c[nH]cn1)C(=O)N[C@@H](CS)C(=O)N[C@@H](CCCCN)C(=O)N[C@@H](CCCCN)C(=O)N[C@@H](CC(C)C)C(=O)NCC(=O)N[C@@H](CCCCN)C(=O)N[C@@H](Cc1ccccc1)C(N)=O` (Ac-HCKKLGKF-NH2), the inhibition result in assay [12] is “inactive”.
For `CC(=O)N[C@@H](CC(C)C)C(=O)N[C@@H](CCC(=O)O)C(=O)NCC(=O)N1CCC[C@H]1C(=O)N[C@@H](CCCCN)C(=O)N[C@@H](C)C(N)=O` (Ac-LEGPKA-NH2), the inhibition entry in [12] was “inactive”.
As to `CC[C@H](C)[C@H](NC(=O)[C@@H](NC(=O)[C@H](Cc1ccc(O)cc1)NC(=O)[C@H](CC(C)C)NC(=O)[C@H](Cc1ccccc1)NC(=O)[C@H](CC(C)C)NC(C)=O)C(C)C)C(=O)N[C@@H](Cc1c[nH]cn1)C(N)=O` (Ac-LFLYVIH-NH2), in assay [12], the inhibition entry was “inactive”. Moreover, the Activity in assay [5] turned out to be 57.6%; in assay [1], 38.4%; in assay [2], 45.7%.
For the compound `CC(=O)N[C@@H](CC(C)C)C(=O)N1CCC[C@H]1C(=O)N[C@@H](CC(N)=O)C(=O)N[C@@H](CO)C(=O)N[C@@H](CC(C)C)C(=O)NCC(=O)N[C@@H](CC(N)=O)C(N)=O` (Ac-LPNSLGN-NH2), the inhibition entry in assay [12] is “inactive”. Further, the Activity was 70.3% in assay [5] and 24.7% in assay [3].
Regarding `CC(=O)N[C@@H](CCC(N)=O)C(=O)N[C@@H](Cc1ccccc1)C(=O)N[C@@H](Cc1ccccc1)C(=O)N[C@@H](CCCCN)C(=O)NCC(=O)N[C@@H](CCCCN)C(N)=O` (Ac-QFFKGK-NH2), the inhibition result in assay [12] is “inactive”. The Activity in assay [5] is recorded as 51.8%; in assay [2] it was 41.6%; in [3], 35.2%.
With `CC[C@H](C)[C@H](NC(=O)[C@H](CCC(=O)O)NC(=O)[C@H](CC(C)C)NC(=O)[C@H](CCCCN)NC(=O)[C@H](CCCCN)NC(=O)[C@H](CS)NC(=O)[C@H](Cc1c[nH]cn1)NC(=O)[C@H](CCC(N)=O)NC(C)=O)C(=O)N[C@@H](CCCCN)C(N)=O` (Ac-QHCKKLEIK-NH2), the inhibition entry in assay [12] was “inactive”.
For `CC(=O)N[C@@H](Cc1ccc(O)cc1)C(=O)N[C@@H](CCCNC(=N)N)C(=O)N[C@@H](C)C(=O)N[C@@H](Cc1c[nH]cn1)C(=O)N[C@@H](CCC(N)=O)C(=O)NCC(=O)N[C@@H](CCC(=O)O)C(N)=O` (Ac-YRAHQGE-NH2), the inhibition entry in [12] was “inactive”. Moreover, the Activity in assay [5] is recorded as 66.9%; in [1], 52.2%; in assay [2], 55.3%; in assay [3] it was 52.4%.
